# PMC5218480 (PLoS ONE, 2017)
# System: MV-4-11 cells
# Test: Gene expression microarray analysis (Affymetrix PrimeView) and GSEA
# Type: cell-based, human
# Set-up: RFU PODN (11730768_x_at) / Fold change /veh PODN (11730768_x_at) / RFU LINC00158 (11744669_a_at) / Fold change /veh LINC00158 (11744669_a_at) / RFU DUSP10 (11751237_a_at) / Fold change /veh DUSP10 (11751237_a_at) / RFU ID3 (11757404_x_at) / Fold change /veh ID3 (11757404_x_at) / RFU PLEKHG5 (11737974_s_at) / Fold change /veh PLEKHG5 (11737974_s_at) / RFU LRRC4B (11730491_at) / Fold change /veh LRRC4B (11730491_at) / RFU GIMAP4 (11747438_a_at) / Fold change /veh GIMAP4 (11747438_a_at) / RFU KRT8 (11758183_x_at) / Fold change /veh KRT8 (11758183_x_at) / RFU CNN1 (11734310_a_at) / Fold change /veh CNN1 (11734310_a_at) / RFU VPS37D (11726825_at) / Fold change /veh VPS37D (11726825_at) / RFU C10orf10 (11716522_x_at) / Fold change /veh C10orf10 (11716522_x_at) / RFU KIR2DL2 /// KIR2DL4 /// KIR2DL5A /// KIR2DL5B /// KIR2DS1 /// KIR2DS2 /// KIR2DS3 /// KIR2DS4 /// KIR3DL3 /// KIR3DL3 /// KIR3DS1 (11738374_at) / Fold change /veh KIR2DL2 /// KIR2DL4 /// KIR2DL5A /// KIR2DL5B /// KIR2DS1 /// KIR2DS2 /// KIR2DS3 /// KIR2DS4 /// KIR3DL3 /// KIR3DL3 /// KIR3DS1 (11738374_at) / RFU C1QL1 (11718748_at) / Fold change /veh C1QL1 (11718748_at) / RFU TMPRSS4 (11747572_a_at) / Fold change /veh TMPRSS4 (11747572_a_at) / RFU HAMP (11756126_x_at) / Fold change /veh HAMP (11756126_x_at) / RFU RNFT2 (11725882_a_at) / Fold change /veh RNFT2 (11725882_a_at) / RFU NR4A2 (11747474_a_at) / Fold change /veh NR4A2 (11747474_a_at) / RFU ABCC12 (11746883_a_at) / Fold change /veh ABCC12 (11746883_a_at) / RFU TMEM136 (11760407_x_at) / Fold change /veh TMEM136 (11760407_x_at) / RFU CLDN22 /// WWC2 (11732394_at) / Fold change /veh CLDN22 /// WWC2 (11732394_at) / RFU HLA-DPB1 (11760878_x_at) / Fold change /veh HLA-DPB1 (11760878_x_at) / RFU SPINT1 (11716480_a_at) / Fold change /veh SPINT1 (11716480_a_at) / RFU GAP43 (11754022_s_at) / Fold change /veh GAP43 (11754022_s_at) / RFU A4GNT (11735810_at) / Fold change /veh A4GNT (11735810_at) / RFU PRB3 (11715151_x_at) / Fold change /veh PRB3 (11715151_x_at) / RFU TUBB4B (11761932_at) / Fold change /veh TUBB4B (11761932_at) / RFU CAPN14 (11732068_a_at) / Fold change /veh CAPN14 (11732068_a_at) / RFU TMCC2 (11721928_a_at) / Fold change /veh TMCC2 (11721928_a_at) / RFU IRGQ (11745062_a_at) / Fold change /veh IRGQ (11745062_a_at) / RFU FAM174B (11720279_a_at) / Fold change /veh FAM174B (11720279_a_at) / RFU TMPRSS4 (11748680_a_at) / Fold change /veh TMPRSS4 (11748680_a_at) / RFU FAM212B (11763350_a_at) / Fold change /veh FAM212B (11763350_a_at) / RFU PLEKHG5 (11743358_a_at) / Fold change /veh PLEKHG5 (11743358_a_at) / RFU ZSCAN30 (11745921_a_at) / Fold change /veh ZSCAN30 (11745921_a_at) / RFU CMKLR1 (11741424_a_at) / Fold change /veh CMKLR1 (11741424_a_at) / RFU LOC101060620 /// MAPK8IP1 (11723275_at) / Fold change /veh LOC101060620 /// MAPK8IP1 (11723275_at) / RFU SPTSSB (11747773_x_at) / Fold change /veh SPTSSB (11747773_x_at) / RFU PRSS12 (11739890_at) / Fold change /veh PRSS12 (11739890_at) / RFU BIN1 (11741810_x_at) / Fold change /veh BIN1 (11741810_x_at) / RFU WNT11 (11732464_a_at) / Fold change /veh WNT11 (11732464_a_at) / RFU C10orf10 (11716521_a_at) / Fold change /veh C10orf10 (11716521_a_at) / RFU C5orf56 (11738089_at) / Fold change /veh C5orf56 (11738089_at) / RFU CYB561 (11721691_x_at) / Fold change /veh CYB561 (11721691_x_at) / RFU ANKRD19P (11752326_a_at) / Fold change /veh ANKRD19P (11752326_a_at) / RFU OR2T12 /// OR2T33 /// OR2T8 (11738714_s_at) / Fold change /veh OR2T12 /// OR2T33 /// OR2T8 (11738714_s_at) / RFU VCAN (11748164_a_at) / Fold change /veh VCAN (11748164_a_at) / RFU JSRP1 (11732532_at) / Fold change /veh JSRP1 (11732532_at) / RFU KRTAP10-11 (11738290_x_at) / Fold change /veh KRTAP10-11 (11738290_x_at) / RFU MYO3A (11730013_a_at) / Fold change /veh MYO3A (11730013_a_at) / RFU EBF3 (11725865_a_at) / Fold change /veh EBF3 (11725865_a_at) / RFU CAMK2N1 (11719241_x_at) / Fold change /veh CAMK2N1 (11719241_x_at) / RFU C5orf56 (11738088_a_at) / Fold change /veh C5orf56 (11738088_a_at) / RFU OLFML3 (11715873_a_at) / Fold change /veh OLFML3 (11715873_a_at) / RFU LOC100653217 /// NTM (11731650_a_at) / Fold change /veh LOC100653217 /// NTM (11731650_a_at) / RFU MAPK11 (11762145_a_at) / Fold change /veh MAPK11 (11762145_a_at) / RFU FIZ1 (11724087_x_at) / Fold change /veh FIZ1 (11724087_x_at) / RFU OASL (11726364_x_at) / Fold change /veh OASL (11726364_x_at) / RFU SOX15 (11748057_x_at) / Fold change /veh SOX15 (11748057_x_at) / RFU CD79A (11719716_a_at) / Fold change /veh CD79A (11719716_a_at) / RFU HIST1H1D (11736915_at) / Fold change /veh HIST1H1D (11736915_at) / RFU CASKIN2 (11723855_a_at) / Fold change /veh CASKIN2 (11723855_a_at) / RFU LOC730098 (11760151_x_at) / Fold change /veh LOC730098 (11760151_x_at) / RFU OR4N2 (11742367_at) / Fold change /veh OR4N2 (11742367_at) / RFU PRRT2 (11749266_a_at) / Fold change /veh PRRT2 (11749266_a_at) / RFU SNX32 (11753110_a_at) / Fold change /veh SNX32 (11753110_a_at) / RFU CDHR5 (11726645_a_at) / Fold change /veh CDHR5 (11726645_a_at) / RFU RCAN1 (11760418_a_at) / Fold change /veh RCAN1 (11760418_a_at) / RFU FAM167A (11723789_a_at) / Fold change /veh FAM167A (11723789_a_at) / RFU FAM26E (11764081_at) / Fold change /veh FAM26E (11764081_at) / RFU ISYNA1 (11749810_s_at) / Fold change /veh ISYNA1 (11749810_s_at) / RFU ACY1 (11761880_at) / Fold change /veh ACY1 (11761880_at) / RFU 11764098_at / Fold change /veh 11764098_at / RFU SAMD14 (11745864_x_at) / Fold change /veh SAMD14 (11745864_x_at) / RFU NPB (11741838_a_at) / Fold change /veh NPB (11741838_a_at) / RFU TMPRSS6 (11731388_a_at) / Fold change /veh TMPRSS6 (11731388_a_at) / RFU KRTAP10-2 (11738614_at) / Fold change /veh KRTAP10-2 (11738614_at) / RFU ARHGAP8 /// PRR5-ARHGAP8 (11727945_x_at) / Fold change /veh ARHGAP8 /// PRR5-ARHGAP8 (11727945_x_at) / RFU KRTAP5-7 /// NADSYN1 (11734609_at) / Fold change /veh KRTAP5-7 /// NADSYN1 (11734609_at) / RFU RASL12 (11751679_a_at) / Fold change /veh RASL12 (11751679_a_at) / RFU CDKN2B (11736163_a_at) / Fold change /veh CDKN2B (11736163_a_at) / RFU PRF1 (11729649_at) / Fold change /veh PRF1 (11729649_at) / RFU, ZNF638 /// ZNF638-IT1 / Fold change vs veh, ZNF638 /// ZNF638-IT1 / RFU, PANK3 / Fold change vs veh, PANK3 / RFU, SH3YL1 / Fold change vs veh, SH3YL1 / RFU, ZEB2 / Fold change vs veh, ZEB2 / RFU, NRIP1 / Fold change vs veh, NRIP1 / RFU, PTTG1IP / Fold change vs veh, PTTG1IP / RFU, CAPN2 / Fold change vs veh, CAPN2 / RFU, MED14 / Fold change vs veh, MED14 / RFU, SNORA58 / Fold change vs veh, SNORA58 / RFU, C1orf63 / Fold change vs veh, C1orf63 / RFU, LRRFIP1 / Fold change vs veh, LRRFIP1 / RFU, NDUFAF7 / Fold change vs veh, NDUFAF7 / RFU, SLC12A2 / Fold change vs veh, SLC12A2 / RFU, IBTK / Fold change vs veh, IBTK / RFU, ESF1 / Fold change vs veh, ESF1 / Fold change vs veh, TMEM50B / RFU, TAOK1 / Fold change vs veh, TAOK1 / RFU, ACBD3 / Fold change vs veh, ACBD3 / RFU, TMA16 / Fold change vs veh, TMA16 / RFU, RWDD3 / Fold change vs veh, RWDD3 / RFU, BCAT1 / Fold change vs veh, BCAT1 / RFU, EDEM3 / Fold change vs veh, EDEM3 / RFU, TMEM33 / Fold change vs veh, TMEM33 / RFU, WDR75 / Fold change vs veh, WDR75 / RFU, AHCTF1 / Fold change vs veh, AHCTF1 / RFU, TFRC / Fold change vs veh, TFRC / RFU, ZDHHC17 / Fold change vs veh, ZDHHC17 / RFU, NOM1 / Fold change vs veh, NOM1 / RFU, ARL8B / Fold change vs veh, ARL8B / RFU, ZBTB11 / Fold change vs veh, ZBTB11 / RFU, TAMM41 / Fold change vs veh, TAMM41 / RFU, KIAA1704 /// LOC100996395 / Fold change vs veh, KIAA1704 /// LOC100996395 / RFU, ING1 / Fold change vs veh, ING1 / RFU, TRMT61B / Fold change vs veh, TRMT61B / RFU, FUBP3 / Fold change vs veh, FUBP3 / RFU, TP53 / Fold change vs veh, TP53 / RFU, TNKS2 / Fold change vs veh, TNKS2 / RFU, ZFP14 / Fold change vs veh, ZFP14 / RFU, ACTR2 / Fold change vs veh, ACTR2 / RFU, PPP3R1 / Fold change vs veh, PPP3R1 / RFU, PIK3R1 / Fold change vs veh, PIK3R1 / RFU, HNRNPA1 / Fold change vs veh, HNRNPA1 / RFU, RNF170 / Fold change vs veh, RNF170 / RFU, ZNF28 / Fold change vs veh, ZNF28 / RFU, RNGTT / Fold change vs veh, RNGTT / RFU, OGT / Fold change vs veh, OGT / RFU, BRD1 / Fold change vs veh, BRD1 / RFU, MARS / Fold change vs veh, MARS / RFU, ZNF655 / Fold change vs veh, ZNF655 / RFU, FAHD1 / Fold change vs veh, FAHD1 / RFU, BDP1 / Fold change vs veh, BDP1 / RFU, LRRCC1 / Fold change vs veh, LRRCC1 / RFU, ARID1A / Fold change vs veh, ARID1A / RFU, ZNF146 / Fold change vs veh, ZNF146 / RFU, ZNF330 / Fold change vs veh, ZNF330 / RFU, GPN3 / Fold change vs veh, GPN3 / RFU, C9orf123 / Fold change vs veh, C9orf123 / RFU, N4BP2L2 / Fold change vs veh, N4BP2L2 / RFU, ARFIP1 / Fold change vs veh, ARFIP1 / RFU, FAM179B / Fold change vs veh, FAM179B / RFU, BCL10 / Fold change vs veh, BCL10 / RFU, UHRF1BP1L / Fold change vs veh, UHRF1BP1L / RFU, BET1 / Fold change vs veh, BET1 / RFU, CNOT2 / Fold change vs veh, CNOT2 / RFU, ZNF268 / Fold change vs veh, ZNF268 / Fold change vs veh, ZNF507 / RFU, DGCR2 / Fold change vs veh, DGCR2 / RFU, WDSUB1 / Fold change vs veh, WDSUB1 / Fold change vs veh, HSP90B1 /// MIR3652 / RFU, ADSS / Fold change vs veh, ADSS / RFU, GK / Fold change vs veh, GK / RFU, ZNF148 / Fold change vs veh, ZNF148 / RFU, TAF9 / Fold change vs veh, TAF9 / RFU, SLC1A5 / Fold change vs veh, SLC1A5 / RFU, SLMO2 / Fold change vs veh, SLMO2 / RFU, ABCC4 / Fold change vs veh, ABCC4 / RFU, LOC101060439 /// RAP1B / Fold change vs veh, LOC101060439 /// RAP1B / RFU, RFX7 / Fold change vs veh, RFX7 / RFU, GTPBP10 / Fold change vs veh, GTPBP10 / RFU, CNEP1R1 / Fold change vs veh, CNEP1R1 / RFU, BIVM-ERCC5 /// ERCC5 / Fold change vs veh, BIVM-ERCC5 /// ERCC5 / RFU, ILF3 / Fold change vs veh, ILF3 / RFU 11762660_at / Fold change /veh 11762660_at / RFU VCAN (11757783_s_at) / Fold change /veh VCAN (11757783_s_at) / RFU DDX43 (11728927_at) / Fold change /veh DDX43 (11728927_at) / RFU KRT8 (11758188_x_at) / Fold change /veh KRT8 (11758188_x_at) / RFU NKD1 (11759106_at) / Fold change /veh NKD1 (11759106_at) / RFU SRD5A1 (11742802_a_at) / Fold change /veh SRD5A1 (11742802_a_at) / RFU TPSAB1 /// TPSB2 (11721975_s_at) / Fold change /veh TPSAB1 /// TPSB2 (11721975_s_at) / RFU GSTM3 (11746129_a_at) / Fold change /veh GSTM3 (11746129_a_at) / RFU IL23R (11737362_x_at) / Fold change /veh IL23R (11737362_x_at) / RFU TMEM51 (11727254_a_at) / Fold change /veh TMEM51 (11727254_a_at) / RFU PIWIL2 (11732686_x_at) / Fold change /veh PIWIL2 (11732686_x_at) / RFU ORM1 (11744905_x_at) / Fold change /veh ORM1 (11744905_x_at) / RFU CCDC152 (11743942_at) / Fold change /veh CCDC152 (11743942_at) / RFU ECM1 (11717891_a_at) / Fold change /veh ECM1 (11717891_a_at) / RFU IL23R (11748794_a_at) / Fold change /veh IL23R (11748794_a_at) / RFU TNFAIP8L3 (11732012_x_at) / Fold change /veh TNFAIP8L3 (11732012_x_at) / RFU MBOAT4 (11741988_at) / Fold change /veh MBOAT4 (11741988_at) / RFU 11764193_at / Fold change /veh 11764193_at / RFU TMEM53 (11763286_at) / Fold change /veh TMEM53 (11763286_at) / RFU MAGEB2 (11727129_at) / Fold change /veh MAGEB2 (11727129_at) / RFU TMEM200A (11744735_a_at) / Fold change /veh TMEM200A (11744735_a_at) / RFU CCDC152 (11751479_a_at) / Fold change /veh CCDC152 (11751479_a_at) / RFU FAM211A (11726209_a_at) / Fold change /veh FAM211A (11726209_a_at) / RFU RGS16 (11746705_a_at) / Fold change /veh RGS16 (11746705_a_at) / RFU VCAN (11755009_s_at) / Fold change /veh VCAN (11755009_s_at) / RFU RHOB (11743442_s_at) / Fold change /veh RHOB (11743442_s_at) / RFU RGS16 (11720943_a_at) / Fold change /veh RGS16 (11720943_a_at) / RFU RGS16 (11720944_at) / Fold change /veh RGS16 (11720944_at) / RFU, VPS4B / Fold change vs veh, VPS4B / RFU, CREB1 / Fold change vs veh, CREB1 / RFU, DNAJC13 / Fold change vs veh, DNAJC13 / RFU, GNAQ / Fold change vs veh, GNAQ / RFU, CDK5R1 / Fold change vs veh, CDK5R1 / RFU, ZRANB3 / Fold change vs veh, ZRANB3 / RFU, CUL4A / Fold change vs veh, CUL4A / RFU, CCNY / Fold change vs veh, CCNY / RFU, UFL1 / Fold change vs veh, UFL1 / RFU, COG3 / Fold change vs veh, COG3 / RFU, DIAPH2 / Fold change vs veh, DIAPH2 / RFU, SKA2 / Fold change vs veh, SKA2 / RFU, AFF3 / Fold change vs veh, AFF3 / RFU, LMF1 / Fold change vs veh, LMF1 / RFU, IPO11 / Fold change vs veh, IPO11 / RFU, DFFB / Fold change vs veh, DFFB / RFU, FOXP1 / Fold change vs veh, FOXP1 / RFU, CARD8 / Fold change vs veh, CARD8 / RFU, STRN3 / Fold change vs veh, STRN3 / RFU, ADK / Fold change vs veh, ADK / RFU, RASSF2 / Fold change vs veh, RASSF2 / RFU, WIPF1 / Fold change vs veh, WIPF1 / RFU, LARP1B / Fold change vs veh, LARP1B / RFU, RASA1 / Fold change vs veh, RASA1 / RFU, RB1 / Fold change vs veh, RB1 / RFU, PPFIA1 / Fold change vs veh, PPFIA1 / RFU, MAT2A / Fold change vs veh, MAT2A / RFU, CCT5 / Fold change vs veh, CCT5 / RFU, WDR92 / Fold change vs veh, WDR92 / RFU, CUX1 / Fold change vs veh, CUX1 / RFU, TTC7A / Fold change vs veh, TTC7A / RFU, TMEM135 / Fold change vs veh, TMEM135 / RFU, DEPTOR / Fold change vs veh, DEPTOR / RFU, CPM / Fold change vs veh, CPM / RFU, DNAJB6 / Fold change vs veh, DNAJB6 / RFU, CACNA2D3 / Fold change vs veh, CACNA2D3 / RFU, DTX4 / Fold change vs veh, DTX4 / RFU, TFCP2 / Fold change vs veh, TFCP2 / RFU, GMCL1 /// GMCL1P1 / Fold change vs veh, GMCL1 /// GMCL1P1 / RFU, AEBP2 / Fold change vs veh, AEBP2 / RFU, SNHG1 /// SNORD22 /// SNORD25 /// SNORD26 /// SNORD27 /// SNORD28 /// SNORD29 /// SNORD31 / Fold change vs veh, SNHG1 /// SNORD22 /// SNORD25 /// SNORD26 /// SNORD27 /// SNORD28 /// SNORD29 /// SNORD31 / Fold change (Aza/veh), C12orf56 (ProbeSet 11735607_a_at) / Fold change (ACY-1035/veh), C12orf56 (ProbeSet 11735607_a_at) / Fold change (Aza/veh), FGFR1OP (ProbeSet 11751329_s_at) / Fold change (ACY-1035/veh), FGFR1OP (ProbeSet 11751329_s_at) / Fold change (Aza/veh), VPS36 (ProbeSet 11739960_a_at) / Fold change (ACY-1035/veh), VPS36 (ProbeSet 11739960_a_at) / RFU SYPL1 (11715823_x_at) / Fold change /veh SYPL1 (11715823_x_at) / RFU IGFBP7 (11715501_s_at) / Fold change /veh IGFBP7 (11715501_s_at) / RFU REEP3 (11722064_at) / Fold change /veh REEP3 (11722064_at) / RFU IGLL1 (11728026_x_at) / Fold change /veh IGLL1 (11728026_x_at): dose or concentration left out as unconfirmed
# Conditions: MV-4-11 cells, 48 hours
compound,measurement,value
Nc1ccc(-c2cccs2)cc1NC(=O)c1ccc2c(c1)cc(C1CC1)n2CCN1CCOCC1 [ACY-1035],RFU 11764098_at,18.10 RFU
